Legend:
Type in all cases: in vivo
[1] = tested on: barnyardgrass (Echinochloa crus-galli); assay: Test B flooded paddy test, plant response rating; conditions: 250 g ai/ha; Flood; scale of 0 to 100 where 0 is no effect and 100 is complete control; 13 to 15 days
Text: (§1) At time of treatment, test pots were flooded to 3 cm above the soil surface, treated by application of test compounds directly to the paddy water, and then maintained at that water depth for the duration of the test. Treated plants and controls were maintained in a greenhouse for 13 to 15 days, after which time all species were compared to controls and visually evaluated. […] A dash (-) response means no test result.

[2] = tested on: rice (Oryza sativa); assay: Test B flooded paddy test, plant response rating; conditions: 250 g ai/ha; Flood; scale of 0 to 100 where 0 is no effect and 100 is complete control; 13 to 15 days
Text: as §1

[3] = tested on: sedge, umbrella (small-flower umbrella sedge, Cyperus difformis); assay: Test B flooded paddy test, plant response rating; conditions: 250 g ai/ha; Flood; scale of 0 to 100 where 0 is no effect and 100 is complete control; 13 to 15 days
Text: as §1

[4] = tested on: ducksalad (Heteranthera limosa); assay: Test B flooded paddy test, plant response rating; conditions: 250 g ai/ha; Flood; scale of 0 to 100 where 0 is no effect and 100 is complete control; 13 to 15 days
Text: as §1

[5] = tested on: barnyardgrass (Echinochloa crus-galli); assay: Test A preemergence, visual injury rating; conditions: for Plant response rating, Barnyardgrass: 31 g ai/ha, 0 to 100 scale, 0 no effect, 100 complete control; for Barnyardgrass plant response rating: 0 to 100 scale (0 no effect, 100 complete control)
Outline: (§2)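 Pre- and postemergence greenhouse screen. Soil: loam + sand. Spray carrier: solvent mixture, non-phytotoxic, with surfactant. Post timing at 1–2 leaves, height 2–10 cm. Readout: visual injury on a 0–100 scale roughly 10 days after application, untreated plants as reference.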

[6] = tested on: kochia (Kochia scoparia); assay: Test A preemergence, visual injury rating; conditions: for Plant response rating, Kochia: 31 g ai/ha, 0 to 100 scale, 0 no effect, 100 complete control; for Kochia plant response rating: 0 to 100 scale (0 no effect, 100 complete control)
Outline: as §2

[7] = tested on: Italian ryegrass (Lolium multiflorum); assay: Test A preemergence, visual injury rating; conditions: for Plant response rating, Ryegrass, Italian: 31 g ai/ha, 0 to 100 scale, 0 no effect, 100 complete control; for Ryegrass, Italian plant response rating: 0 to 100 scale (0 no effect, 100 complete control)
Outline: as §2

[8] = tested on: giant foxtail (Setaria faberii); assay: Test A preemergence, visual injury rating; conditions: for Plant response rating, Foxtail, Giant: 31 g ai/ha, 0 to 100 scale, 0 no effect, 100 complete control; for Foxtail, Giant plant response rating: 0 to 100 scale (0 no effect, 100 complete control)
Outline: as §2

[9] = tested on: pigweed (Amaranthus retroflexus); assay: Test A preemergence, visual injury rating; conditions: for Plant response rating, Pigweed: 31 g ai/ha, 0 to 100 scale, 0 no effect, 100 complete control; for Pigweed plant response rating: 0 to 100 scale (0 no effect, 100 complete control)
Outline: as §2

[10] = tested on: ragweed (common ragweed, Ambrosia elatior); assay: Test A preemergence, visual injury rating; conditions: for Plant response rating, Ragweed: 31 g ai/ha, 0 to 100 scale, 0 no effect, 100 complete control; for Ragweed plant response rating: 0 to 100 scale (0 no effect, 100 complete control)
Outline: as §2

[11] = tested on: corn (Zea mays); assay: Test A postemergence, visual injury rating; conditions: 0 is no effect, 100 is complete control; for Corn plant response rating: 31 g ai/ha, 0 to 100 scale, approximately 10 days
Text: (§3) Seeds of plant species selected from barnyardgrass (Echinochloa crus-galli), kochia (Kochia scoparia), ragweed (common ragweed, Ambrosia elatior), Italian ryegrass (Lolium multiflorum), large (Lg) crabgrass (Digitaria sanguinalis), giant foxtail (Setaria faberii), morningglory (Ipomoea spp.), pigweed (Amaranthus retroflexus), velvetleaf (Abutilon theophrasti), wheat (Triticum aestivum), and corn (Zea mays) were planted into a blend of loam soil and sand and treated preemergence with a directed soil spray using test chemicals formulated in a non-phytotoxic solvent mixture which included a surfactant.
(§4) At the same time, plants selected from these crop and weed species and also blackgrass (Alopecurus myosuroides), and galium (catchweed bedstraw, Galium aparine) were planted in pots containing the same blend of loam soil and sand and treated with postemergence applications of test chemicals formulated in the same manner. Plants ranged in height from 2 to 10 cm and were in the one- to two-leaf stage for the postemergence treatment. Treated plants and untreated controls were maintained in a greenhouse for approximately 10 days, after which time all treated plants were compared to untreated controls and visually evaluated for injury. Plant response ratings, summarized in Table A, are based on a 0 to 100 scale where 0 is no effect and 100 is complete control. A dash (-) response means no test result.

[12] = tested on: barnyardgrass (Echinochloa crus-galli); assay: Test A postemergence, visual injury rating; conditions: 0 is no effect, 100 is complete control; for Barnyardgrass plant response rating: 31 g ai/ha, 0 to 100 scale, approximately 10 days
Text: as §3, §4

[13] = tested on: kochia (Kochia scoparia); assay: Test A postemergence, visual injury rating; conditions: 0 is no effect, 100 is complete control; for Kochia plant response rating: 31 g ai/ha, 0 to 100 scale, approximately 10 days
Text: as §3, §4

[14] = tested on: wheat (Triticum aestivum); assay: Test A postemergence, visual injury rating; conditions: 0 is no effect, 100 is complete control; for Wheat plant response rating: 31 g ai/ha, 0 to 100 scale, approximately 10 days
Text: as §3, §4

[15] = tested on: Italian ryegrass (Lolium multiflorum); assay: Test A postemergence, visual injury rating; conditions: 0 is no effect, 100 is complete control; for Ryegrass, Italian plant response rating: 31 g ai/ha, 0 to 100 scale, approximately 10 days
Text: as §3, §4

[16] = tested on: giant foxtail (Setaria faberii); assay: Test A postemergence, visual injury rating; conditions: 0 is no effect, 100 is complete control; for Foxtail, Giant plant response rating: 31 g ai/ha, 0 to 100 scale, approximately 10 days
Text: as §3, §4

[17] = tested on: galium (catchweed bedstraw, Galium aparine); assay: Test A postemergence, visual injury rating; conditions: 0 is no effect, 100 is complete control; for Galium plant response rating: 31 g ai/ha, 0 to 100 scale, approximately 10 days
Text: as §3, §4

[18] = tested on: pigweed (Amaranthus retroflexus); assay: Test A postemergence, visual injury rating; conditions: 0 is no effect, 100 is complete control; for Pigweed plant response rating: 31 g ai/ha, 0 to 100 scale, approximately 10 days
Text: as §3, §4

[19] = tested on: blackgrass (Alopecurus myosuroides); assay: Test A postemergence, visual injury rating; conditions: 0 is no effect, 100 is complete control; for Blackgrass plant response rating: 31 g ai/ha, 0 to 100 scale, approximately 10 days
Text: as §3, §4

[20] = tested on: ragweed (common ragweed, Ambrosia elatior); assay: Test A postemergence, visual injury rating; conditions: 0 is no effect, 100 is complete control; for Ragweed plant response rating: 31 g ai/ha, 0 to 100 scale, approximately 10 days
Text: as §3, §4

SMILES	Plant response rating, Barnyardgrass [1]	Plant response rating, Rice [2]	Plant response rating, Sedge, Umbrella [3]	Plant response rating, Ducksalad [4]	Barnyardgrass plant response rating ([5]; 125 g ai/ha)	Kochia plant response rating ([6]; 125 g ai/ha)	Ryegrass, Italian plant response rating ([7]; 125 g ai/ha)	Foxtail, Giant plant response rating ([8]; 125 g ai/ha)	Pigweed plant response rating ([9]; 125 g ai/ha)	Ragweed plant response rating ([10]; 125 g ai/ha)	Corn plant response rating (0 to 100 scale) ([11]; 125 g ai/ha)	Barnyardgrass plant response rating (0 to 100 scale) ([12]; 125 g ai/ha)	Kochia plant response rating (0 to 100 scale) ([13]; 125 g ai/ha)	Wheat plant response rating (0 to 100 scale) ([14]; 125 g ai/ha)	Ryegrass, Italian plant response rating (0 to 100 scale) ([15]; 125 g ai/ha)	Foxtail, Giant plant response rating (0 to 100 scale) ([16]; 125 g ai/ha)	Galium plant response rating (0 to 100 scale) ([17]; 125 g ai/ha)	Pigweed plant response rating (0 to 100 scale) ([18]; 125 g ai/ha)	Blackgrass plant response rating (0 to 100 scale) ([19]; 125 g ai/ha)	Ragweed plant response rating (0 to 100 scale) ([20]; 125 g ai/ha)	further results
C=C(C)COC(=O)c1c(Br)cccc1Oc1ncc(Cl)cn1 [Compound 3]	0	0	100	30	80	40	30	100	100	0	30	60	40	0	30	80	70	100	30	0	Plant response rating, Barnyardgrass [5]: 60; Plant response rating, Kochia [6]: 0; Plant response rating, Ryegrass, Italian [7]: 0; Plant response rating, Foxtail, Giant [8]: 70; Plant response rating, Pigweed [9]: 50; Plant response rating, Ragweed [10]: 0; Corn plant response rating [11]: 0; Barnyardgrass plant response rating [12]: 20; Kochia plant response rating [13]: 0; Wheat plant response rating [14]: 0; Ryegrass, Italian plant response rating [15]: 0; Foxtail, Giant plant response rating [16]: 30; Galium plant response rating [17]: 40; Pigweed plant response rating [18]: 70; Blackgrass plant response rating [19]: 0; Ragweed plant response rating [20]: 0
O=C(OCC(F)(F)C(F)(F)F)c1c(F)cccc1Oc1ncc(Br)cn1 [Compound 4]	0	0	0	0	0	0	0	0	0	0	0	0	0	0	0	0	0	0	0	0	Plant response rating, Barnyardgrass [5]: 0; Plant response rating, Kochia [6]: 0; Plant response rating, Ryegrass, Italian [7]: 0; Plant response rating, Foxtail, Giant [8]: 0; Plant response rating, Pigweed [9]: 0; Plant response rating, Ragweed [10]: 0; Corn plant response rating [11]: 0; Barnyardgrass plant response rating [12]: 0; Kochia plant response rating [13]: 0; Wheat plant response rating [14]: 0; Ryegrass, Italian plant response rating [15]: 0; Foxtail, Giant plant response rating [16]: 0; Galium plant response rating [17]: 0; Pigweed plant response rating [18]: 0; Blackgrass plant response rating [19]: 0; Ragweed plant response rating [20]: 0
O=C(OCC(F)(F)C(F)(F)F)c1c(F)cccc1Oc1ncc(Cl)cn1 [Compound 5]	0	0	0	0	0	0	0	0	0	0	0	0	0	0	0	0	0	0	0	0	Plant response rating, Barnyardgrass [5]: 0; Plant response rating, Kochia [6]: 0; Plant response rating, Ryegrass, Italian [7]: 0; Plant response rating, Foxtail, Giant [8]: 0; Plant response rating, Pigweed [9]: 0; Plant response rating, Ragweed [10]: 0; Corn plant response rating [11]: 0; Barnyardgrass plant response rating [12]: 0; Kochia plant response rating [13]: 0; Wheat plant response rating [14]: 0; Ryegrass, Italian plant response rating [15]: 0; Foxtail, Giant plant response rating [16]: 0; Galium plant response rating [17]: 0; Pigweed plant response rating [18]: 0; Blackgrass plant response rating [19]: 0; Ragweed plant response rating [20]: 0
O=C(OCC1CCCC1)c1c(Br)cccc1Oc1ncc(Cl)cn1 [Compound 6]	0	0	0	0	10	0	0	60	10	0	0	10	40	0	0	10	60	60	10	10	Barnyardgrass plant response rating ([5]; 500 g ai/ha): 60; Kochia plant response rating ([6]; 500 g ai/ha): 0; Ryegrass, Italian plant response rating ([7]; 500 g ai/ha): 70; Foxtail, Giant plant response rating ([8]; 500 g ai/ha): 100; Pigweed plant response rating ([9]; 500 g ai/ha): 70; Ragweed plant response rating ([10]; 500 g ai/ha): 0; Corn plant response rating (0 to 100 scale) ([11]; 500 g ai/ha): 10; Barnyardgrass plant response rating (0 to 100 scale) ([12]; 500 g ai/ha): 40; Kochia plant response rating (0 to 100 scale) ([13]; 500 g ai/ha): 90; Wheat plant response rating (0 to 100 scale) ([14]; 500 g ai/ha): 10; Ryegrass, Italian plant response rating (0 to 100 scale) ([15]; 500 g ai/ha): 40; Foxtail, Giant plant response rating (0 to 100 scale) ([16]; 500 g ai/ha): 50; Galium plant response rating (0 to 100 scale) ([17]; 500 g ai/ha): 90; Pigweed plant response rating (0 to 100 scale) ([18]; 500 g ai/ha): 90; Blackgrass plant response rating (0 to 100 scale) ([19]; 500 g ai/ha): 30; Ragweed plant response rating (0 to 100 scale) ([20]; 500 g ai/ha): 30
